Test results: US20250326748A1, “COMPOUNDS AND METHODS FOR MODULATING SPLICING” (REMIX THERAPEUTICS INC., priority 2022, published 2025)
Counter-ions that a name gives are not always drawn. Like-named read-outs stand apart in the source and are kept apart here.

Legend:
Assay type in all cases: cell-based, human
Target C mRNA = assay: Splicing RT-qPCR panel, Target C canonical junction (CJ) mRNA; conditions: Homo sapiens, read-out: Target C CJ (decrease in CJ mRNA levels, IC50)
Method in brief: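 A673 cells (DMEM, 10% FBS) or K562 cells (IMDM, 10% FBS) treated 24 h at 37 °C with an 11-point 3-fold dilution, top 10 uM, DMSO ≤0.25%. Canonical-junction mRNA quantified in lysates by RT-qPCR, normalised to GAPDH, GUSB or PPIA and to DMSO (2^−ΔΔCt), then converted to % response.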

MYB mRNA = assay: Splicing RT-qPCR assay, MYB canonical (CJ) and alternative (AJ) junction mRNA; conditions: Homo sapiens; for IC50: canonical junction mRNA; for AC50: alternative junction mRNA, read-out: MYB AJ (AC50, increase in AJ mRNA)
Method in brief: (§1)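 Treatment of A673 or K562 cultures with compounds (eleven-point titration, highest final 10 uM, ≤0.25% DMSO) ran one day at 37 °C. Afterwards cells were lysed directly in the well, and cDNA synthesis coupled with qPCR measured CJ and AJ isoform levels against a reference transcript.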

HTT mRNA = assay: Splicing RT-qPCR assay, HTT canonical (CJ) and alternative (AJ) junction mRNA; conditions: Homo sapiens; for IC50: canonical junction mRNA; for AC50: alternative junction mRNA, read-out: HTT AJ (AC50, increase in AJ mRNA)
Method in brief: as §1

[1] = qPCR panel, read-out: MYB CJ (decrease in CJ mRNA levels, IC50)
[2] = RT-qPCR, A673 or K562 cells, 24 hours treatment
[3] = RT-qPCR, A673 or K562 cells, 24 hours treatment, read-out: MYB CJ (IC50, decrease in CJ mRNA)
[4] = 24 h, RT-qPCR, A673 or K562 cells, 24 hours treatment, read-out: HTT CJ (IC50, decrease in CJ mRNA)
[5] = qPCR panel, read-out: HTT CJ (decrease in CJ mRNA levels, IC50)

CN[C@@H]1CCN(c2cnc3nc(-c4cc5cn(C)nc5c(C)c4O)ncc3c2)C1 [Compound 107, 2,7-dimethyl-5-{6-[(3R)-3-(methylamino)pyrrolidin-1-yl]pyrido[2,3-d]pyrimidin-2-yl}indazol-6-ol hydrochloride]
100 to 1000 nM: IC50 (Target C mRNA)
< 100 nM: IC50 (MYB mRNA; [1]) | AC50 (MYB mRNA; [2]) | IC50 (MYB mRNA; [3]) | IC50 (HTT mRNA; [4]) | IC50 (HTT mRNA; [5]) | AC50 (HTT mRNA; [2])

C[C@H]1CN(c2cnc3nc(-c4cc5cn(C)nc5c(F)c4O)cc(Cl)c3c2)C[C@H](C)N1 [Compound 280]
< 100 nM: IC50 (Target C mRNA) | IC50 (MYB mRNA; [1]) | AC50 (MYB mRNA; [2]) | IC50 (MYB mRNA; [3]) | IC50 (HTT mRNA; [4]) | IC50 (HTT mRNA; [5]) | AC50 (HTT mRNA; [2])

CN[C@H]1CN(c2cnc3nc(-c4cc5cn(C)nc5c(C)c4O)ccc3c2)C[C@H]1F [Compound 129, 5-{6-[(3R,4S)-3-fluoro-4-(methylamino)pyrrolidin-1-yl]-1,8-naphthyridin-2-yl}-2,7-dimethylindazol-6-ol]
100 to 1000 nM: IC50 (Target C mRNA) | IC50 (MYB mRNA; [1]) | AC50 (MYB mRNA; [2]) | IC50 (MYB mRNA; [3]) | IC50 (HTT mRNA; [4]) | IC50 (HTT mRNA; [5]) | AC50 (HTT mRNA; [2])

Cc1c(O)c(-c2cc(Cl)c3cc(N(C)[C@@H]4CCNC4)cnc3n2)cc2cn(C)nc12.Cl [Compound 293]
1000 to 10000 nM: IC50 (Target C mRNA)
100 to 1000 nM: IC50 (MYB mRNA; [1]) | AC50 (MYB mRNA; [2]) | IC50 (MYB mRNA; [3]) | IC50 (HTT mRNA; [4]) | IC50 (HTT mRNA; [5]) | AC50 (HTT mRNA; [2])

Cc1c(O)c(-c2ccc3cc(N4CC[C@@H](NCC5CC5)C4)cnc3n2)cc2cn(C)nc12 [Compound 118]
< 100 nM: IC50 (MYB mRNA; [1]) | AC50 (MYB mRNA; [2]) | IC50 (MYB mRNA; [3]) | IC50 (HTT mRNA; [4]) | IC50 (HTT mRNA; [5]) | AC50 (HTT mRNA; [2])
100 to 1000 nM: IC50 (Target C mRNA)

CCN[C@H]1CCN(c2cnc3nc(-c4cc5cn(C)nc5c(C)c4O)ccc3c2)C1 [Compound 123]
< 100 nM: IC50 (MYB mRNA; [1]) | AC50 (MYB mRNA; [2]) | IC50 (MYB mRNA; [3])
100 to 1000 nM: IC50 (Target C mRNA) | IC50 (HTT mRNA; [4]) | IC50 (HTT mRNA; [5]) | AC50 (HTT mRNA; [2])

CN1CCC[C@@H]2CN(c3cnc4nc(-c5cc6cn(C)nc6c(F)c5O)cc(Cl)c4c3)C[C@@H]21 [Compound 303]
100 to 1000 nM: IC50 (MYB mRNA; [1]) | AC50 (MYB mRNA; [2]) | IC50 (MYB mRNA; [3]) | IC50 (HTT mRNA; [4]) | IC50 (HTT mRNA; [5])
> 10000 nM: IC50 (Target C mRNA) | AC50 (HTT mRNA; [2])

C[C@@H]1CN(c2cnc3nc(-c4ccc5nn(C)cc5c4)cc(Cl)c3c2)C[C@H](C)N1 [Compound 320, 4-chloro-6-[(3R,5S)-3,5-dimethylpiperazin-1-yl]-2-(2-methylindazol-5-yl)-1,8-naphthyridine]
> 10000 nM: IC50 (Target C mRNA) | IC50 (HTT mRNA; [4]) | IC50 (HTT mRNA; [5]) | AC50 (HTT mRNA; [2])
1000 to 10000 nM: IC50 (MYB mRNA; [1]) | AC50 (MYB mRNA; [2]) | IC50 (MYB mRNA; [3])

Cn1cc2cc(-c3ccc4cc(NC5CCNCC5)cnc4n3)c(O)c(F)c2n1 [Compound 285]
100 to 1000 nM: IC50 (MYB mRNA; [1]) | AC50 (MYB mRNA; [2]) | IC50 (MYB mRNA; [3]) | IC50 (HTT mRNA; [4]) | IC50 (HTT mRNA; [5]) | AC50 (HTT mRNA; [2])
1000 to 10000 nM: IC50 (Target C mRNA)

CN[C@@H]1CN(c2cnc3nc(-c4cc5cn(C)nc5c(C)c4O)ccc3c2)C[C@@H]1C [Compound 128]
< 100 nM: IC50 (MYB mRNA; [1]) | IC50 (MYB mRNA; [3])
100 to 1000 nM: IC50 (Target C mRNA) | AC50 (MYB mRNA; [2]) | IC50 (HTT mRNA; [4]) | IC50 (HTT mRNA; [5]) | AC50 (HTT mRNA; [2])

Cn1cc2cc(-c3ccc4cc(N5CC[C@H](NCC6CC6)C5)cnc4n3)c(O)c(F)c2n1 [Compound 136, 5-{6-[(3S)-3-[(cyclopropylmethyl)amino]326pyrrolidine-1-yl]-1,8-naphthyridin-2-yl}-7-fluoro-2-methylindazol-6-ol]
100 to 1000 nM: IC50 (MYB mRNA; [1]) | IC50 (MYB mRNA; [3]) | IC50 (HTT mRNA; [4]) | IC50 (HTT mRNA; [5]) | AC50 (HTT mRNA; [2])
1000 to 10000 nM: IC50 (Target C mRNA)
< 100 nM: AC50 (MYB mRNA; [2])

CN[C@@H]1CN(c2cnc3nc(-c4cc5cn(C)nc5c(C)c4O)ccc3c2)C[C@@H]1F [Compound 132, 5-{6-[(3S,4R)-3-fluoro-4-(methylamino)pyrrolidin-1-yl]-1,8-naphthyridin-2-yl}-2,7-dimethylindazol-6-ol]
100 to 1000 nM: IC50 (Target C mRNA) | IC50 (MYB mRNA; [1]) | IC50 (MYB mRNA; [3]) | IC50 (HTT mRNA; [4]) | IC50 (HTT mRNA; [5]) | AC50 (HTT mRNA; [2])
< 100 nM: AC50 (MYB mRNA; [2])

CN[C@H]1CCN(c2cnc3nc(-c4cc5cn(C)nc5c(F)c4O)cc(Cl)c3c2)C1 [Compound 272]
< 100 nM: IC50 (MYB mRNA; [1]) | AC50 (MYB mRNA; [2]) | IC50 (MYB mRNA; [3]) | IC50 (HTT mRNA; [4]) | IC50 (HTT mRNA; [5]) | AC50 (HTT mRNA; [2])
100 to 1000 nM: IC50 (Target C mRNA)

Cn1cc2cc(-c3ccc4cc(N5CCC(NC(C)(C)C)C5)cnc4n3)c(O)cc2n1 (stereo not shown) [Compound 134, 5-{6-[3-(tert-butylamino)pyrrolidin-1-yl]-1,8-naphthyridin-2-yl}-2-methylindazol-6-ol hydrochloride]
100 to 1000 nM: IC50 (Target C mRNA) | IC50 (MYB mRNA; [1]) | AC50 (MYB mRNA; [2]) | IC50 (MYB mRNA; [3]) | IC50 (HTT mRNA; [4]) | IC50 (HTT mRNA; [5]) | AC50 (HTT mRNA; [2])

CN[C@@H]1CCN(c2cnc3nc(-c4cc(C)c5nc(C)cn5n4)ccc3c2)C1 [Compound 117]
100 to 1000 nM: AC50 (MYB mRNA; [2]) | AC50 (HTT mRNA; [2])
< 100 nM: IC50 (MYB mRNA; [1]) | IC50 (MYB mRNA; [3])
1000 to 10000 nM: IC50 (Target C mRNA) | IC50 (HTT mRNA; [4]) | IC50 (HTT mRNA; [5])

C[C@@H]1CN(c2cnc3nc(-c4cc(F)c5nn(C)cc5c4)cc(Cl)c3c2)CCN1 [Compound 295, 4-chloro-2-(7-fluoro-2-methylindazol-5-yl)-6-[(3R)-3-methylpiperazin-1-yl]-1,8-naphthyridine]
100 to 1000 nM: AC50 (MYB mRNA; [2]) | IC50 (HTT mRNA; [4]) | IC50 (HTT mRNA; [5]) | AC50 (HTT mRNA; [2])
1000 to 10000 nM: IC50 (Target C mRNA)
< 100 nM: IC50 (MYB mRNA; [1]) | IC50 (MYB mRNA; [3])

CN[C@@H]1CCN(c2cnc3nc(-c4cc5cn(C)nc5c(C)c4O)cc(Cl)c3c2)C1 [Compound 286, 5-{4-chloro-6-[(3R)-3-(methylamino)pyrrolidin-1-yl]-1,8-naphthyridin-2-yl}-2,7-dimethylindazol-6-ol hydrochloride]
< 100 nM: IC50 (Target C mRNA) | IC50 (MYB mRNA; [1]) | AC50 (MYB mRNA; [2]) | IC50 (MYB mRNA; [3]) | IC50 (HTT mRNA; [4]) | IC50 (HTT mRNA; [5]) | AC50 (HTT mRNA; [2])

CN[C@@H]1CN(c2cnc3nc(-c4cc5cn(C)nc5c(C)c4O)ccc3c2)C[C@H]1F (single isomer, unassigned) [Compound 130]
100 to 1000 nM: IC50 (Target C mRNA) | IC50 (HTT mRNA; [4]) | IC50 (HTT mRNA; [5]) | AC50 (HTT mRNA; [2])
< 100 nM: IC50 (MYB mRNA; [1]) | AC50 (MYB mRNA; [2]) | IC50 (MYB mRNA; [3])

CN[C@@H]1CCN(c2cnc3nc(-c4cc(C)c5nc(C)cn5n4)cc(Cl)c3c2)C1 [Compound 341]
< 100 nM: IC50 (MYB mRNA; [1]) | AC50 (MYB mRNA; [2]) | IC50 (MYB mRNA; [3]) | IC50 (HTT mRNA; [4]) | IC50 (HTT mRNA; [5]) | AC50 (HTT mRNA; [2])
100 to 1000 nM: IC50 (Target C mRNA)
